From US7354956B2, “Composition containing a sapogenin and use thereof” (L'Oreal, priority 2002, dated 2008)
Read-outs that look alike come from different tables or passages of the source.

System: nerve/muscle (motor plate) junction, phrenic nerve/diaphragm preparation (striated muscle)
Assay: Muscle-relaxant effect on contractions of isolated rat phrenic nerve/diaphragm preparation induced by indirect stimulation via the phrenic nerve
Conditions: for inhibition at 10 µM / IC50: Rattus norvegicus; for inhibition at 10 µM: read-out: % INHIBITION OF CONTRACTIONS; for IC50: cumulative concentrations 10^−10 M to 10^−5 M, read-out: IC50 (concentration to obtain 50% of the inhibitory effect)
Experimental: Hecogenin acetate and diosgenin, sold by Sigma, were tested on a model of nerve/muscle (motor plate) junction obtained in a phrenic nerve/diaphragm preparation isolated from rat (striated muscle) (Pollard B. J. et al, Br. J. Anaesth., 1988, 61, 419-424).
The phrenic nerve and the diaphragm are carefully isolated and placed in a 50 ml tank filled with survival liquid (Krebs-Henseleit liquid) maintained at a temperature of 37° C. and oxygenated with an oxygen/CO2 mixture (95/5).
The tension variations of the diaphragm are recorded with an initial pre-load of several grams.
After a relaxation period of 30 minutes, the diaphragm is stimulated indirectly via the phrenic nerve. […]

[1] = contractions induced by indirect stimulation via phrenic nerve

Structure (SMILES)	inhibition at 10 µM	IC50 [1]	inhibition of the contractions induced by the indirect stimulations (concentration 10^−4 M)	effect on the contractions induced by the indirect stimulations (concentration 10^−5 M)	inhibition at 10 µM (concentration 10^−5 M, contractions induced by indirect stimulation via phrenic nerve)
CC(=O)O[C@H]1CC[C@@]2(C)[C@@H](CC[C@@H]3[C@@H]2CC(=O)[C@]2(C)[C@@H]4[C@H](C[C@@H]32)O[C@]2(CC[C@@H](C)CO2)[C@H]4C)C1 [Hecogenin acetate]	100%	2500 nM	–	–	–
CCN(CCCc1ccccc1)CCCc1ccccc1 [alverine, reference compound]	–	–	completely inhibits	no effect	–
C[C@@H]1CC[C@@]2(OC1)O[C@H]1C[C@H]3[C@@H]4CC=C5C[C@@H](O)CC[C@]5(C)[C@H]4CC[C@]3(C)[C@H]1[C@@H]2C [Diosgenin]	–	1000 nM	–	–	100%
